Bridge positions count the residues as written; N and C are the ends. Square brackets hold non-standard residues; d marks the D form. Peptide text beside a SMILES is read from it. Nle = CCCC[C@H](N)C(=O)O

Here are results for 15 compounds from US5824771A, “Cyclic CRF agonists” (The Salk Institute for Biological Studies, priority 1997, dated 1998).

Assay [1] can be described thus: Relief of inflammation on administration. Type of assay: in vivo. The following applies: administration of the peptide.
For assay [2], the system named is ACTH and β-END-LI secretion. The assay is described as follows: Secretion of ACTH and β-END-LI on administration of the peptide (in vivo testing). On the procedure: (§1) The cyclic CRF agonists are examined for their effects on the secretion of ACTH and β-endorphin in vitro and also in vivo. […] In vivo testing is carried out using the general procedure set forth in C. Rivier et al., Science, 218, 377 (1982).

Assay [3] deals with rat anterior pituitary cells. The assay can be described thus: In vitro stimulation of ACTH and β-endorphin secretion by cultured rat pituitary cells, potency compared with oCRF (Standard) or r/hCRF. In kind it is cell-based. The following applies: for in vitro potency to stimulate secretion of ACTH relative to the Standard: relative to the laboratory Standard (synthetic oCRF), cultured rat pituitary cells, limits in parentheses; for in vitro biopotency, comparison in words: compared with the Standard or with a named analog. The method, then: as §1

A short description of assay [4]: Lowering of blood pressure on peripheral or iv administration. The following applies: iv injection / administered intravenously. In kind it is in vivo.

Take `CCCC[C@H](NC(=O)[C@H](CCC(=O)O)NC(=O)[C@@H](NC(=O)[C@H](CCCC)NC(=O)[C@H](CC(N)=O)NC(=O)[C@H](CCCNC(=N)N)NC(=O)[C@H](CC(C)C)NC(=O)[C@H](CC(C)C)NC(=O)[C@H](Cc1c[nH]cn1)NC(=O)[C@@H](Cc1ccccc1)NC(=O)[C@@H](NC(=O)[C@H](CC(C)C)NC(=O)[C@H](CC(=O)O)NC(=O)[C@@H](NC(=O)[C@H](CO)NC(=O)[C@@H](NC(=O)[C@H]1CCCN1C(=O)[C@@H]1CCCN1C(C)=O)[C@@H](C)CC)[C@@H](C)CC)[C@@H](C)O)[C@@H](C)CC)C(=O)N[C@@H](C)C(=O)N[C@@H](CCCNC(=N)N)C(=O)N[C@@H](CC(N)=O)C(=O)N[C@@H](CCC(=O)O)C(=O)N[C@@H](CC(N)=O)C(=O)N[C@@H](CCC(N)=O)C(=O)N[C@@H](CCCNC(=N)N)C(=O)N[C@@H](CCC(=O)O)C(=O)N[C@H]1CCC(=O)NCCCC[C@@H](C(=O)N[C@@H](CC(N)=O)C(=O)N[C@@H](CCCNC(=N)N)C(=O)N[C@@H](CCCCN)C(=O)N[C@@H](Cc2ccc(O)cc2)C(=O)N[C@@H](CC(C)C)C(=O)N[C@@H](CC(=O)O)C(=O)N[C@@H](CCC(=O)O)C(=O)N[C@H](C(N)=O)C(C)C)NC(=O)[C@@H](Cc2c[nH]cn2)NC(=O)[C@H](C)NC1=O` [Example 8 A, (cyclo 30-33)[Ac-Pro^4, D-Pro^5, D-Phe^12, Nle^18,21, Glu^30, D-His^32, Lys^33]-Carp Urotensin I(4-41)] (Ac-P[dP]ISIDLT[dF]HLLRN[Nle]IE[Nle]ARNENQREEA[dH]KNRKYLDEV-NH2; lactam 27-30): the “relief of inflammation, in words” value in assay [1] was “relieves inflammation”.

With “(cyclo 30-33)[Ac-Agl(Me,Ac)^7, D-Phe^12, Nle^21,38, Glu^30, Lys^33 ]-r/hCRF(7-41) [Example 19 G]”, in assay [2], the “stimulation of secretion of ACTH and β-END-LI on administration of the peptide, in words” value (from here on “stimulation”) was “stimulates the secretion of ACTH and β-END-LI”. Further, the “in vitro potency to stimulate secretion of ACTH relative to the Standard” value in assay [3] was “about 3.4 times”.

Turning to “(cyclo 30-33)[Ac-D/L-Agl(Me,For)^7, D-Phe^12, Nle^21,38, Glu^30, Lys^33 ]-r/hCRF(7-41) [Example 19 D]”, in assay [2], the “stimulation” value was “stimulates the secretion of ACTH and β-END-LI”. Also, the “in vitro biopotency, comparison in words” value in assay [3] is on record as “less potent than the Standard”.

Consider “(cyclo 30-33)[Ac-D/L-MeAgl^7, D-Phe^12, Nle^21,38, Glu^30, Lys^33 ]-r/hCRF(7-41) [Example 19 B]”, for which, in assay [2], the “stimulation” value is “stimulate the secretion of ACTH and β-END-LI”. The “in vitro biopotency, comparison in words” value in assay [3] was “less potent than the Standard”.

For “(cyclo 30-33)[Ac-MeAgl(For)^7, D-Phe^12, Nle^21,38, Glu^30, Lys^33 ]-r/hCRF(7-41) [Example 19 E]”, the “stimulation” value in assay [2] is “stimulates the secretion of ACTH and β-END-LI”.

On to “(cyclo 30-33)[Ac-Pro^4, D-Phe^12, CML^14, Nle^21,38, Glu^30, D-His^32, Lys^33 ]-r/hCRF(4-41) [Example 9 A]”, for which the “stimulation” value in assay [2] is “stimulates the secretion of ACTH and β-END-LI”. The “lowering of blood pressure on iv injection, in words” value (“lowering of blood pressure” below) in assay [4] was “lowers blood pressure”.

As for “(cyclo 30-33)[Ac-Pro^4, D-Phe^12, CML^15, Nle^21,38, Glu^30, D-His^32, Lys^33 ]-r/hCRF(4-41) [Example 9]”, in assay [2], the “stimulation” value is “stimulates the secretion of ACTH and β-END-LI”. Besides, the “lowering of blood pressure” value in assay [4] is given as “lowers blood pressure”.

As for “(cyclo 30-33)[Ac-Pro^4, D-Phe^12, CML^17, Nle^21,38, Glu^30, D-His^32, Lys^33 ]-r/hCRF (4-41) [Example 9 E]”, in assay [2], the “stimulation” value is “stimulates the secretion of ACTH and β-END-LI”. Further, the “lowering of blood pressure” value in assay [4] is “lowers blood pressure”.

Regarding “(cyclo 30-33)[Ac-Pro^4, D-Phe^12, CML^19, Nle^21,38, Glu^30, D-His^32, Lys^33 ]-r/hCRF (4-41) [Example 9 B]”, in assay [2], the “stimulation” value is “stimulates the secretion of ACTH and β-END-LI”. For the same compound, the “lowering of blood pressure” value in assay [4] is “lowers blood pressure”.

As for “(cyclo 30-33)[Ac-Pro^4, D-Phe^12, Nle^21,38, CML^27, Glu^30, D-His^32, Lys^33 ]-r/hCRF(4-41) [Example 9 C]”, the “stimulation” value in assay [2] was “stimulates the secretion of ACTH and β-END-LI”. In addition, in assay [4], the “lowering of blood pressure” value is “lowers blood pressure”.

As for “(cyclo 30-33)[Ac-Pro^4, D-Phe^12, Nle^21,38, Glu^30, D-His^32, Lys^33, CML^37 ]-r/hCRF(4-41) [Example 9 D]”, the “stimulation” value in assay [2] was “stimulates the secretion of ACTH and β-END-LI”. In addition, the “lowering of blood pressure” value in assay [4] is “lowers blood pressure”.

Take “(cyclo 30-33)[Ac-Pro^4, D-Pro^5, D-Phe^12, Nle^21,38, CML^27, Glu^30, D-His^32, Lys^33 ]-r/hCRF(4-41) [Example 9 C D-Pro^5 analog]”: in assay [2], the “stimulation” value is “stimulates the secretion of ACTH and β-END-LI”. Moreover, in assay [3], the “in vitro potency to stimulate secretion of ACTH relative to the Standard” value is “about 7 times”.

As to “(cyclo 30-33)[Ac-Pro^4,D-Phe^12, Nle^21,38, Glu^30, D-Amp^32, Lys^33 ]-r/hCRF(4-41) [Example 6 D]”, in assay [2], the “stimulation” value is “stimulates the secretion of ACTH and β-END-LI”. Besides, the “lowering of blood pressure” value in assay [4] is reported as “lowers blood pressure”.

“(cyclo 30-33)[Ac-Ser(OMe)^7, D-Phe^12, Nle^21,38, Glu^30, Lys^33 ]-r/hCRF(7-41) [Example 19 I]”: the “stimulation” value in assay [2] was “stimulates the secretion of ACTH and β-END-LI”.

Regarding “(cyclo 30-33)[Ac-Ser^7, D-Phe^12, CML^18,27, Nle^21,38, Glu^30, Lys^33 ]-r/hCRF(7-41) [Example 20 C]”, the “stimulation” value in assay [2] was “stimulates the secretion of ACTH and β-END-LI”. The “lowering of blood pressure” value in assay [4] was “lowers blood pressure”.
